The values below come from ChEMBL document CHEMBL3792309, “Seeking potent anti-tubercular agents: Design, synthesis, anti-tubercular activity and docking study of various ((triazoles/indole)-piperazin-1-yl/1,4-diazepan-1-yl)benzo[d]isoxazole derivatives” (Bioorg Med Chem Lett, 2016).

Data set [1] deals with Mycobacterium tuberculosis. Nature of the data set: Antimicrobial activity against p-aminosalicylic acid/isonicotinic acid hydrazide/etambutol/rifampicin sensitive Mycobacterium tuberculosis Spec. 192 by classical test tube method. It is filed as functional.
For another data set, the system named is RAW264.7. As to the kind of experiment: Cytotoxicity against mouse RAW264.7 cells assessed as inhibition of cell viability after 72 hrs by CellTiter 96 non radioactive cell proliferation assay. In kind it is cell-based. As to conditions: RAW264.7, 72 h.
Data set [2] is described as follows: Cytotoxicity against mouse RAW264.7 cells assessed as inhibition of cell viability at 96.13 uM after 72 hrs by CellTiter 96 non radioactive cell proliferation assay. It is filed as cell-based.
Data set [3] is described as follows: Selectivity index, ratio of IC50 for mouse RAW264.7 cells to MIC for Mycobacterium tuberculosis H37Rv. It is filed as toxicity. As to conditions: read-out: Selectivity Index.
Data set [4] has as its system Mycobacterium tuberculosis. Nature of the data set: Antimicrobial activity against Mycobacterium tuberculosis H37Rv by classical test tube method. In kind it is functional.
A short description of data set [5]: Cytotoxicity against mouse RAW264.7 cells assessed as inhibition of cell viability at 116.78 uM after 72 hrs by CellTiter 96 non radioactive cell proliferation assay. In kind it is cell-based.
Data set [6] in a line: Cytotoxicity against mouse RAW264.7 cells assessed as inhibition of cell viability at 98.8 uM after 72 hrs by CellTiter 96 non radioactive cell proliferation assay. It is filed as cell-based.
Data set [7] is described as follows: Cytotoxicity against mouse RAW264.7 cells assessed as inhibition of cell viability at 113.07 uM after 72 hrs by CellTiter 96 non radioactive cell proliferation assay. It is filed as cell-based.
For data set [8], the system named is Mycobacterium tuberculosis. As to the kind of experiment: Antimicrobial activity against Mycobacterium tuberculosis H37Rv assessed as growth inhibition at 257.59 uM by classical test tube method. It is filed as functional. As to conditions: read-out: GI.

pIC50: −log10 of the molar value. In brackets after ≈: the same amount, converted by molar mass. Where only a bound is given, the exact number is not on record here.

What is called MIC is the lowest concentration found to suppress growth. As usually defined, the pIC50 is the IC50 on a negative log10 scale, so that one unit is a factor of ten. The term inhibition denotes how much of the control response was suppressed.

Consider `FC(F)(F)c1cc(-n2cc(CN3CCCN(c4noc5ccccc45)CC3)nn2)ccc1Br`, for which the MIC in data set [1] and in data set [4] was 24 µM (≈ 12.5 µg/mL) each time. Besides, the pIC50 with RAW264.7 is 3.74. For the same molecule, the inhibition at 72 h, 96.13 µM in [2] is 26.5%. Further, the selectivity ratio in [3] came out at 7.54.
For the molecule `O=C(CCCc1c[nH]c2ccccc12)N1CCCN(c2noc3ccccc23)CC1`, the MIC in data set [1] and in data set [4] was above 200 µM throughout.
Regarding `O=C(Cc1c[nH]c2ccccc12)N1CCN(c2noc3ccccc23)CC1`, the MIC in data set [1] and in data set [4] was above 200 µM throughout.
On to `COc1cccc(-n2cc(CN3CCCN(c4noc5ccccc45)CC3)nn2)c1`, for which the MIC in [1] and in data set [4] was above 200 µM throughout.
As for `O=[N+]([O-])c1ccc(-n2cc(CN3CCN(c4noc5ccccc45)CC3)nn2)cc1`, the MIC in [1] and in data set [4] was above 200 µM in each case.
Turning to `COc1cccc(-n2cc(CN3CCN(c4noc5ccccc45)CC3)nn2)c1`, the MIC in [1] and in data set [4] was 128 µM (≈ 50 µg/mL) each time.
With `C#CCN1CCCN(c2noc3ccccc23)CC1`, the minimal inhibitory concentration (MIC) in data set [1] and in data set [4] was 196 µM (≈ 50 µg/mL) throughout.
Regarding `Brc1ccc(-n2cc(CN3CCN(c4noc5ccccc45)CC3)nn2)cc1`, the MIC in [1] and in [4] was above 200 µM in each case.
Consider `C#CCN1CCN(c2noc3ccccc23)CC1`, for which the MIC in data set [1] and in data set [4] was above 200 µM in each case.
`FC(F)(F)c1cccc(-n2cc(CN3CCN(c4noc5ccccc45)CC3)nn2)c1`: the MIC in [1] and in data set [4] was 29.2 µM (≈ 12.5 µg/mL) each time. For the same molecule, the inhibition at 72 h, 116.78 µM in [5] is 19.2%. Further, the pIC50 in the data set on RAW264.7 is 3.52. Further, the selectivity ratio in data set [3] stood at 10.4.
Regarding `O=C(Cc1c[nH]c2ccccc12)N1CCCN(c2noc3ccccc23)CC1`, the MIC in [1] and in data set [4] was 134 µM (≈ 50 µg/mL) each time.
As to `Clc1ccc(-n2cc(CN3CCN(c4noc5cc(Cl)ccc45)CC3)nn2)cc1`, the MIC in data set [1] and in data set [4] was above 200 µM in each case.
For `O=C(CCCc1c[nH]c2ccccc12)N1CCN(c2noc3cc(Cl)ccc23)CC1`, the MIC in data set [1] and in data set [4] was above 200 µM throughout.
As to `O=C(CCCc1c[nH]c2ccccc12)N1CCN(c2noc3ccccc23)CC1`, the MIC in data set [1] and in data set [4] was above 200 µM in each case.
On to `COc1ccc(-n2cc(CN3CCCN(c4noc5ccccc45)CC3)nn2)cc1`, for which the MIC in data set [1] and in data set [4] was above 200 µM each time.
`O=C(CCc1c[nH]c2ccccc12)N1CCCN(c2noc3ccccc23)CC1`: the MIC in [1] and in [4] was above 200 µM in each case.
`CCc1ccc(-n2cc(CN3CCCN(c4noc5ccccc45)CC3)nn2)cc1`: the MIC in data set [1] and in [4] was above 200 µM in each case.
As to `Fc1ccc(-n2cc(CN3CCN(c4noc5ccccc45)CC3)nn2)cc1`, the MIC in [1] and in data set [4] was 132 µM (≈ 50 µg/mL) throughout.
As for `Clc1ccc2c(N3CCN(Cc4cn(-c5ccc(Br)cc5)nn4)CC3)noc2c1`, the MIC in data set [1] and in [4] was above 200 µM throughout.
Regarding `Brc1ccc(-n2cc(CN3CCCN(c4noc5ccccc45)CC3)nn2)cc1`, the MIC in [1] and in [4] was above 200 µM throughout.
Regarding `FC(F)(F)c1cc(-n2cc(CN3CCN(c4noc5ccccc45)CC3)nn2)ccc1Br`, the MIC in data set [1] and in [4] was 6.16 µM (≈ 3.13 µg/mL) each time. Further, the pIC50 in the data set with RAW264.7 was 3.65. In addition, in data set [3], the selectivity ratio is 36.1. The inhibition at 72 h, 98.8 µM in data set [6] worked out at 22.2%.
Turning to `O=C(Cc1c[nH]c2ccccc12)N1CCN(c2noc3cc(Cl)ccc23)CC1`, the MIC in data set [1] and in [4] was 127 µM (≈ 50.1 µg/mL) each time.
As for `COc1ccc(-n2cc(CN3CCN(c4noc5ccccc45)CC3)nn2)cc1`, the MIC in data set [1] and in data set [4] was above 200 µM each time.
On to `Clc1ccc(-n2cc(CN3CCCN(c4noc5ccccc45)CC3)nn2)cc1`, for which the minimum inhibitory concentration (MIC) in data set [1] and in data set [4] was above 200 µM each time.
As for `O=[N+]([O-])c1ccc(-n2cc(CN3CCCN(c4noc5ccccc45)CC3)nn2)cc1`, the MIC in [1] and in data set [4] was above 200 µM each time.
For `FC(F)(F)c1cccc(-n2cc(CN3CCCN(c4noc5ccccc45)CC3)nn2)c1`, the MIC in data set [1] and in data set [4] was 28.3 µM (≈ 12.5 µg/mL) throughout. The pIC50 in the data set on RAW264.7 was 3.75. Besides, the inhibition at 72 h, 113.07 µM in [7] is 31.8%. The selectivity ratio in [3] turned out to be 6.29.
With `O=[N+]([O-])c1ccc(-n2cc(CN3CCN(c4noc5cc(Cl)ccc45)CC3)nn2)cc1`, the MIC in [1] and in [4] was above 200 µM each time.
For `Clc1cccc(-n2cc(CN3CCCN(c4noc5ccccc45)CC3)nn2)c1`, the MIC in [1] and in data set [4] was 122 µM (≈ 50.1 µg/mL) in each case.
Regarding `CCc1ccc(-n2cc(CN3CCN(c4noc5cc(Cl)ccc45)CC3)nn2)cc1`, the MIC in data set [1] and in data set [4] was above 200 µM in each case.
On to `Clc1cccc(-n2cc(CN3CCN(c4noc5ccccc45)CC3)nn2)c1`, for which the MIC in data set [1] and in data set [4] was 63.4 µM (≈ 25 µg/mL) each time.
On to `COc1ccc(-n2cc(CN3CCN(c4noc5cc(Cl)ccc45)CC3)nn2)cc1`, for which the MIC in [1] and in data set [4] was 118 µM (≈ 50.1 µg/mL) throughout.
Take `O=C(CCc1c[nH]c2ccccc12)N1CCN(c2noc3cc(Cl)ccc23)CC1`: the MIC in [1] and in [4] was above 200 µM each time.
Turning to `O=C(CCc1c[nH]c2ccccc12)N1CCN(c2noc3ccccc23)CC1`, the MIC in data set [1] and in data set [4] was above 200 µM in each case.
As for `Clc1ccc(-n2cc(CN3CCN(c4noc5ccccc45)CC3)nn2)cc1`, the MIC in data set [1] and in data set [4] was above 200 µM in each case.
For the molecule `CCc1ccc(-n2cc(CN3CCN(c4noc5ccccc45)CC3)nn2)cc1`, the MIC in data set [1] and in data set [4] was above 200 µM each time. Moreover, in data set [8], the inhibition of growth at 257.59 µM was 99%.
Turning to `Fc1ccc(-n2cc(CN3CCCN(c4noc5ccccc45)CC3)nn2)cc1`, the MIC in [1] and in data set [4] was 127 µM (≈ 50 µg/mL) each time.
As to `Fc1ccc(-n2cc(CN3CCN(c4noc5cc(Cl)ccc45)CC3)nn2)cc1`, the MIC in [1] and in [4] was 121 µM (≈ 50.1 µg/mL) throughout.
On to `C#CCN1CCN(c2noc3cc(Cl)ccc23)CC1`, for which the MIC in [1] and in data set [4] was 182 µM (≈ 50.1 µg/mL) in each case.
On to `NNC(=O)c1ccncc1` [ISONIAZID], for which the MIC in [1] and in data set [4] was 91.1 µM (≈ 12.5 µg/mL) throughout.
